Laboratory results reported in patent US20160235727A1, “NOVEL PYRROLIDINE DERIVED BETA 3 ADRENERGIC RECEPTOR AGONISTS” (Merck Sharp & Dohme Corp., priority 2013, published 2016).

Target: T1, human β3-AR (Homo sapiens, UniProt P13945)
T1 construct: expressed in transfected cells; host or cells: CHO (Chinese hamster ovary) cells, stably transfected
Assay: cAMP functional agonist assay (LANCE TR-FRET) in CHO cells expressing cloned human β3-AR
Format: cell-based
Conditions: for EC50: CHO cells stably expressing cloned human β3-adrenoceptor, cAMP release, read-out: Human β3-AR Agonism EC50; for Fold drop in potency vs. 2-chloropyridine analog: EC50 of comparative example divided by EC50 of corresponding 2-chloropyridine compound; for Human β3-AR Agonist Activity (%): percent maximum activation relative to isoproterenol
Description: The ability of compounds to activate the human β3-AR receptor was measured using a CHO cell line stably expressing the cloned human β1-, β2-, and β3-adrenoceptors (β-AR). […] To quantify the amount of cAMP released following β-AR activation, the LANCE cAMP kit (Perking Elmer), a time-resolved fluorescence resonance energy transfer immunoassay, was used. Compounds were serially diluted in DMSO and an aliquot added to either 384-well or 96-well micro titer plates in assay buffer (5 mM HEPES, 0.1% BSA in Hank's Balanced Salt Solution). […] Following 30 min incubation at room temperature, the cells were lysed by the addition of LANCE detection buffer which contained a europium-labeled cAMP tracer. Fluorescence was measured following one hour incubation at room temperature using a Perking Elmer Envision plate reader, exciting at 340 nm and measuring emission at 615 nm and 665 nm. For each assay, a cAMP standard curve was included and used to convert fluorescence readings directly to cAMP amounts. The values were then normalized to isoproterenol, a known full agonist of β-AR, which was titrated in every assay and the EC50 determined using a custom in-house data analysis package. Along with EC50, the percent maximum activation relative to isoproterenol is reported.
The cAMP production is measured using a homogenous time-resolved fluorescence resonance energy transfer immunoassay (LANCE™, Perkin Elmer) according to the manufacture's instructions. Chinese hamster ovary (CHO) cells, stably transfected with the cloned β-adrenergic receptor (β1, β2 or β3) are harvested after 3 days of subculturing. Harvesting of cells is done with Enzyme-free Dissociation Media (Specialty Media). Cells are then counted and resuspended in assay buffer (Hank's Balanced salt solution supplemented with 5 mM HEPES, […]) containing a phosphodiesterase inhibitor (IBMX, 0.6 mM). The reaction is initiated by mixing 6,000 cells in 6 μL with 6 μL Alexa Fluor labeled cAMP antibody (LANCE™ kit) which is then added to an assay well containing 12 μL of compound (diluted in assay buffer to 2× final concentration). The reaction proceeds for 30 minutes at RT and is terminated by the addition of 24 ul detection buffer (LANCE™ kit). The assay plate is then incubated for 1 h at RT and time-resolved fluorescence measured on a Perkin Elmer Envision reader or equivalent. The unknown cAMP level is determined by comparing fluorescence levels to a cAMP standard curve.
The non-selective, full agonist β-adrenergic ligand isoproterenol is used at all three receptors to determine maximal stimulation. […] Data are analyzed using Microsoft Excel and Graphpad Prism or an internally developed data analysis software package. […]

T1 sequence (P13945 whole entry): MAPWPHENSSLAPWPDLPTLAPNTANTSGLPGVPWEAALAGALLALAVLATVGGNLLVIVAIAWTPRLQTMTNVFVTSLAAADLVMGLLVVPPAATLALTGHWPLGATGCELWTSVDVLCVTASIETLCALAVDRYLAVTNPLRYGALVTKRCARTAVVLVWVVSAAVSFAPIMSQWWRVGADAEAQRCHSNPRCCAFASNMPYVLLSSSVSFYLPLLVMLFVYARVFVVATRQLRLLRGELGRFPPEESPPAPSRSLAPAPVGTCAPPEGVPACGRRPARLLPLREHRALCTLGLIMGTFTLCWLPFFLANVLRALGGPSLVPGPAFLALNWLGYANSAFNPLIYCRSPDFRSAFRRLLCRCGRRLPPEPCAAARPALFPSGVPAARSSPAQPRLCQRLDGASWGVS

SMILES	EC50 [nM]	Fold drop in potency vs. 2-chloropyridine analog [fold]	Human β3-AR Agonist Activity (%)
CC(C)c1cc(CN(C)C(=O)c2ccc(C[C@@H]3CC[C@H]([C@H](O)c4ccccc4)N3)cc2)n[nH]1 [Example 7-B, 4-(((2S,5R)-5-((R)-hydroxy(phenyl)methyl)pyrrolidin-2-yl)methyl)-N-((5-isopropyl-1H-pyrazol-3-yl)methyl)-N-methylbenzamide]	188	3.2	110
CN(Cc1cc(C2CC2)[nH]n1)C(=O)c1ccc(C[C@@H]2CC[C@H]([C@H](O)c3ccc(Cl)nc3)N2)cc1 [Example 8-A, 4-(((2S,5R)-5-((R)-(6-chloropyridin-3-yl)(hydroxy)methyl)pyrrolidin-2-yl)methyl)-N-((5-cyclopropyl-1H-pyrazol-3-yl)methyl)-N-methylbenzamide]	20		103
CN(Cc1cc(C2CC2)[nH]n1)C(=O)c1ccc(C[C@@H]2CC[C@H]([C@H](O)c3ccccc3)N2)cc1 [Example 8-B, N-((5-cyclopropyl-1H-pyrazol-3-yl)methyl)-4-(((2S,5R)-5-((R)-hydroxy(phenyl)methyl)pyrrolidin-2-yl)methyl)-N-methylbenzamide]	39	2.0	103
COCc1cc(CN(C)C(=O)c2ccc(C[C@@H]3CC[C@H]([C@H](O)c4ccc(Cl)nc4)N3)cc2)n[nH]1 [Example 9-A, 4-(((2S,5R)-5-((R)-(6-chloropyridin-3-yl)(hydroxy)methyl)pyrrolidin-2-yl)methyl)-N-((5-(methoxymethyl)-1H-pyrazol-3-yl)methyl)-N-methylbenzamide]	3		93
COCc1cc(CN(C)C(=O)c2ccc(C[C@@H]3CC[C@H]([C@H](O)c4ccccc4)N3)cc2)n[nH]1 [Example 9-B, 4-(((2S,5R)-5-((R)-hydroxy(phenyl)methyl)pyrrolidin-2-yl)methyl)-N-((5-(methoxymethyl)-1H-pyrazol-3-yl)methyl)-N-methylbenzamide]	15	5.5	102
COCc1cc(CN(C)C(=O)c2ccc(C[C@@H]3CC[C@H]([C@H](O)c4ccc(OC(F)F)cc4)N3)cc2)n[nH]1 [Example 9-E, 4-(((2S,5R)-5-((R)-(4-(difluoromethoxy)phenyl)(hydroxy)methyl)pyrrolidin-2-yl)methyl)-N-((5-(methoxymethyl)-1H-pyrazol-3-yl)methyl)-N-methylbenzamide]	108	39.6	76
COCc1cc(CN(C)C(=O)c2ccc(C[C@@H]3CC[C@H]([C@H](O)c4ccc(Cl)cc4)N3)cc2)n[nH]1 [Example 9-G, 4-(((2S,5R)-5-((R)-(4-chlorophenyl)(hydroxy)methyl)pyrrolidin-2-yl)methyl)-N-((5-(methoxymethyl)-1H-pyrazol-3-yl)methyl)-N-methylbenzamide]	4	1.6	97
COCc1cc(CN(C)C(=O)c2ccc(C[C@@H]3CC[C@H]([C@H](O)c4cccnc4)N3)cc2)n[nH]1 [Example 9-H, 4-(((2S,5R)-5-((R)-hydroxy(pyridin-3-yl)methyl)pyrrolidin-2-yl)methyl)-N-((5-(methoxymethyl)-1H-pyrazol-3-yl)methyl)-N-methylbenzamide]	104	38.1	101
CN(Cc1cc(C(F)(F)F)[nH]n1)C(=O)c1ccc(C[C@@H]2CC[C@H]([C@H](O)c3ccc(Cl)nc3)N2)cc1 [Example 10-A, 4-(((2S,5R)-5-((R)-(6-chloropyridin-3-yl)(hydroxy)methyl)pyrrolidin-2-yl)methyl)-N-methyl-N-((5-(trifluoromethyl)-1H-pyrazol-3-yl)methyl)benzamide]	2		96
CN(Cc1cc(C(F)(F)F)[nH]n1)C(=O)c1ccc(C[C@@H]2CC[C@H]([C@H](O)c3ccccc3)N2)cc1 [Example 10-B, 4-(((2S,5R)-5-((R)-hydroxy(phenyl)methyl)pyrrolidin-2-yl)methyl)-N-methyl-N-((5-(trifluoromethyl)-1H-pyrazol-3-yl)methyl)benzamide]	5	3.2	110
CN(Cc1cc(C(F)(F)F)[nH]n1)C(=O)c1ccc(C[C@@H]2CC[C@H]([C@H](O)c3cccnc3)N2)cc1 [Example 10-H, 4-(((2S,5R)-5-((R)-hydroxy(pyridin-3-yl)methyl)pyrrolidin-2-yl)methyl)-N-methyl-N-((5-(trifluoromethyl)-1H-pyrazol-3-yl)methyl)benzamide]	22	13.9	98
CCOc1cc(CN(C)C(=O)c2ccc(C[C@@H]3CC[C@H]([C@H](O)c4ccc(Cl)nc4)N3)cc2)[nH]n1 [Example 11-A, 4-(((2S,5R)-5-((R)-(6-chloropyridin-3-yl)(hydroxy)methyl)pyrrolidin-2-yl)methyl)-N-((5-ethoxy-1H-pyrazol-3-yl)methyl)-N-methylbenzamide]	7		95
CCOc1cc(CN(C)C(=O)c2ccc(C[C@@H]3CC[C@H]([C@H](O)c4ccccc4)N3)cc2)n[nH]1 [Example 11-B, N-((5-ethoxy-1H-pyrazol-3-yl)methyl)-4-(((2S,5R)-5-((R)-hydroxy(phenyl)methyl)pyrrolidin-2-yl)methyl)-N-methylbenzamide]	26	4.0	116
CCc1[nH]nc(CN(C)C(=O)c2ccc(C[C@@H]3CC[C@H]([C@H](O)c4ccc(Cl)nc4)N3)cc2)c1C [Example 12-A, 4-(((2S,5R)-5-((R)-(6-chloropyridin-3-yl)(hydroxy)methyl)pyrrolidin-2-yl)methyl)-N-((5-ethyl-4-methyl-1H-pyrazol-3-yl)methyl)-N-methylbenzamide]	13		95
CCc1[nH]nc(CN(C)C(=O)c2ccc(C[C@@H]3CC[C@H]([C@H](O)c4ccccc4)N3)cc2)c1C [Example 12-B, N-((5-ethyl-4-methyl-1H-pyrazol-3-yl)methyl)-4-(((2S,5R)-5-((R)-hydroxy (phenyl)methyl)pyrrolidin-2-yl)methyl)-N-methylbenzamide]	18	1.5	120
CN(Cc1n[nH]c2c1CCC2)C(=O)c1ccc(C[C@@H]2CC[C@H]([C@H](O)c3ccc(Cl)nc3)N2)cc1 [Example 13-A, 4-(((2S,5R)-5-((R)-(6-chloropyridin-3-yl)(hydroxy)methyl)pyrrolidin-2-yl)methyl)-N-methyl-N-((1,4,5,6-tetrahydrocyclopenta[c]pyrazol-3-yl)methyl)benzamide]	2		99
CN(Cc1n[nH]c2c1CCC2)C(=O)c1ccc(C[C@@H]2CC[C@H]([C@H](O)c3ccccc3)N2)cc1 [Example 13-B, 4-(((2S,5R)-5-((R)-hydroxy(phenyl)methyl)pyrrolidin-2-yl)methyl)-N-methyl-N-((1,4,5,6-tetrahydrocyclopenta[c]pyrazol-3-yl)methyl)benzamide]	3	1.5	113
CN(Cc1n[nH]c2c1CCCC2)C(=O)c1ccc(C[C@@H]2CC[C@H]([C@H](O)c3ccc(Cl)nc3)N2)cc1 [Example 14-A, 4-(((2S,5R)-5-((R)-(6-chloropyridin-3-yl)(hydroxy)methyl)pyrrolidin-2-yl)methyl)-N-methyl-N-((4,5,6,7-tetrahydro-1H-indazol-3-yl)methyl)benzamide]	3		108
CN(Cc1n[nH]c2c1CCCC2)C(=O)c1ccc(C[C@@H]2CC[C@H]([C@H](O)c3cccnc3)N2)cc1 [Example 14-H, 4-(((2S,5R)-5-((R)-hydroxy(pyridin-3-yl)methyl)pyrrolidin-2-yl)methyl)-N-methyl-N-((4,5,6,7-tetrahydro-1H-indazol-3-yl)methyl)benzamide]	55	19.5	101
